{"source": "patent US20150105252A1", "about": "“SUBSTITUTED PYRAZOLES AS HERBICIDES” (E I DU PONT DE NEMOURS AND COMPANY, priority 2013, published 2015)", "key": {"[1]": {"system": "foxtail, giant", "assay": "Test A preemergence", "assay_type": "in vivo, Setaria faberii", "conditions": "preemergence", "in_short": "(§1)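 Ratings express plant response from 0 (no effect) to 100 (complete control), judged visually against untreated controls after approximately 10 days in the greenhouse. Preemergence applications were made as directed soil sprays onto seeded loam–sand mix, and postemergence applications onto 2–10 cm plants at one- to two-leaf stage.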"}, "[2]": {"system": "ducksalad", "assay": "Test B flood", "assay_type": "in vivo, Heteranthera limosa", "conditions": "250 g ai/ha, visual rating on 0 to 100 scale (0 no effect, 100 complete control), 13 to 15 days", "in_short": "(§2)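 Visual ratings on a 0–100 scale, where 0 means no effect and 100 means complete control, were assigned by comparison with controls 13 to 15 days after treatment. Compounds went into paddy water over 2-leaf plants flooded to 3 cm.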"}, "[3]": {"system": "pigweed", "assay": "Test A preemergence", "assay_type": "in vivo, Amaranthus retroflexus", "conditions": "preemergence, 125 g ai/ha, visual injury approx. 10 days after treatment", "in_short": "as §1"}, "[4]": {"system": "wheat", "assay": "Test A preemergence", "assay_type": "in vivo, Triticum aestivum", "conditions": "preemergence, 125 g ai/ha, visual injury approx. 10 days after treatment", "in_short": "as §1"}, "[5]": {"system": "wheat", "assay": "Test A postemergence", "assay_type": "in vivo, Triticum aestivum", "conditions": "Postemergence", "in_short": "as §1"}, "[6]": {"system": "velvetleaf", "assay": "Test A preemergence", "assay_type": "in vivo, Abutilon theophrasti", "conditions": "preemergence, 125 g ai/ha, visual injury approx. 10 days after treatment", "in_short": "as §1"}, "[7]": {"system": "corn", "assay": "Test A preemergence", "assay_type": "in vivo, Zea mays", "conditions": "preemergence", "in_short": "as §1"}, "[8]": {"system": "morningglory", "assay": "Test C preemergence", "assay_type": "in vivo, Ipomoea coccinea", "in_short": "(§3)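 Greenhouse pot test: preemergence application onto freshly seeded loam/sand mix, postemergence application onto seedlings (1–4 leaves, 2–18 cm) in peat-vermiculite substrate. Responses scored visually 13 to 15 days later relative to controls, where 0 means no effect and 100 means complete control; a dash indicates no result.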"}, "[9]": {"system": "crabgrass, large", "assay": "Test A preemergence", "assay_type": "in vivo, Digitaria sanguinalis", "conditions": "preemergence", "in_short": "as §1"}, "[10]": {"system": "sedge, umbrella", "assay": "Test B flood", "assay_type": "in vivo, Cyperus difformis", "conditions": "250 g ai/ha, visual rating on 0 to 100 scale (0 no effect, 100 complete control), 13 to 15 days", "in_short": "as §2"}, "[11]": {"system": "foxtail, giant", "assay": "Test A postemergence", "assay_type": "in vivo, Setaria faberii", "conditions": "Postemergence", "in_short": "as §1"}, "[12]": {"system": "ragweed", "assay": "Test C preemergence", "assay_type": "in vivo, Ambrosia elation", "in_short": "as §3"}, "[13]": {"system": "nutsedge, yellow", "assay": "Test C preemergence", "assay_type": "in vivo, Cyperus esculentus", "in_short": "as §3"}, "[14]": {"system": "rice", "assay": "Test B flood", "assay_type": "in vivo, Oryza sativa", "conditions": "250 g ai/ha, visual rating on 0 to 100 scale (0 no effect, 100 complete control), 13 to 15 days", "in_short": "as §2"}, "[15]": {"system": "barnyardgrass", "assay": "Test A postemergence", "assay_type": "in vivo, Echinochloa crus-galli", "conditions": "Postemergence", "in_short": "as §1"}, "[16]": {"conditions": "125 g ai/ha, visual injury approx. 10 days after treatment"}, "[17]": {"conditions": "500 g ai/ha, visual injury after approx. 10 days, 0 to 100 scale (0 no effect, 100 complete control)"}, "[18]": {"conditions": "125 g ai/ha, 0 to 100 scale, 0 no effect, 100 complete control"}, "[19]": {"conditions": "500 g ai/ha, 0 to 100 scale (0 no effect, 100 complete control)"}, "[20]": {"conditions": "Preemergence, rate head not shown (block before 16 g ai/ha), scale 0 to 100"}, "[21]": {"conditions": "preemergence, 62 g ai/ha, scale 0 to 100 (0 no effect, 100 complete control), 13 to 15 days"}, "[22]": {"conditions": "preemergence, 125 g ai/ha, 13 to 15 days, scale 0 to 100, 0 = no effect, 100 = complete control"}, "[23]": {"conditions": "preemergence, 250 g ai/ha, scale 0 to 100, 0 is no effect, 100 is complete control"}}}
{"smiles": "CCc1cc(C(=O)NC2CC2)nn1Cc1cc(C(F)(F)C(F)(F)F)nn1C", "note": "[Compound 226]", "values": [{"measurement": "Foxtail, Giant plant response rating (0 to 100 scale)", "setting": "[1]; [16]", "result": 100}, {"measurement": "Foxtail, Giant plant response rating", "setting": "[1]; [17]", "result": 100}, {"measurement": "Plant response rating, Ducksalad", "setting": "[2]", "result": 90}, {"measurement": "Pigweed plant response rating (0 to 100 scale)", "setting": "[3]", "result": 100}, {"measurement": "Wheat plant response rating (0 to 100 scale)", "setting": "[4]", "result": 40}, {"measurement": "Wheat plant response rating", "setting": "[5]; [18]", "result": 60}, {"measurement": "Wheat plant response rating", "setting": "[5]; [19]", "result": 90}, {"measurement": "Velvetleaf plant response rating (0 to 100 scale)", "setting": "[6]", "result": 60}, {"measurement": "Corn plant response rating (0 to 100 scale)", "setting": "[7]; [16]", "result": 30}, {"measurement": "Corn plant response rating", "setting": "[7]; [17]", "result": 50}, {"measurement": "Plant response rating, Morningglory", "setting": "[8]; [20]", "result": 85}, {"measurement": "Morningglory plant response rating", "setting": "[8]; [21]", "result": 85}, {"measurement": "Plant response rating, Morningglory", "setting": "[8]; [22]", "result": 100}, {"measurement": "Morningglory plant response rating", "setting": "[8]; [23]", "result": 100}, {"measurement": "Crabgrass, Large plant response rating (0 to 100 scale)", "setting": "[9]; [16]", "result": 100}, {"measurement": "Crabgrass, Large plant response rating", "setting": "[9]; [17]", "result": 100}, {"measurement": "Plant response rating, Sedge, Umbrella", "setting": "[10]", "result": 90}, {"measurement": "Foxtail, Giant plant response rating", "setting": "[11]; [18]", "result": 80}, {"measurement": "Foxtail, Giant plant response rating", "setting": "[11]; [19]", "result": 90}, {"measurement": "Plant response rating, Ragweed", "setting": "[12]; [20]", "result": 90}, {"measurement": "Ragweed plant response rating", "setting": "[12]; [21]", "result": 100}, {"measurement": "Plant response rating, Ragweed", "setting": "[12]; [22]", "result": 95}, {"measurement": "Ragweed plant response rating", "setting": "[12]; [23]", "result": 98}, {"measurement": "Plant response rating, Nutsedge, Yellow", "setting": "[13]; [20]", "result": 0}, {"measurement": "Nutsedge, Yellow plant response rating", "setting": "[13]; [21]", "result": 5}, {"measurement": "Plant response rating, Nutsedge, Yellow", "setting": "[13]; [22]", "result": 5}, {"measurement": "Nutsedge, Yellow plant response rating", "setting": "[13]; [23]", "result": 20}, {"measurement": "Plant response rating, Rice", "setting": "[14]", "result": 30}, {"measurement": "Barnyardgrass plant response rating", "setting": "[15]; [18]", "result": 60}, {"measurement": "Barnyardgrass plant response rating", "setting": "[15]; [19]", "result": 90}]}
